Test results reported in paper PMC5732813, “Novel piplartine-containing ruthenium complexes: synthesis, cell growth inhibition, apoptosis induction and ROS production on HCT116 cells” (Oncotarget, 2017).
Values joined by “and” are separate entries in the source; they are usually repeats but may differ in a detail not shown here. Equal entries are not always repeated. Where two headings read alike, the source gives them in different places.

Experiments:
Type in all cases: cell-based
[1] = tested on: MRC-5 (human lung fibroblast); assay: Cytotoxic activity, alamar blue assay, MRC-5 non-cancer cells; conditions: Homo sapiens
Text: (§1) HCT116 (human colon carcinoma), HepG2 (human hepatocellular carcinoma), HSC-3 (human oral squamous cell carcinoma), SCC-4 (human oral squamous cell carcinoma), SCC-9 (human oral squamous cell carcinoma), HL-60 (human promyelocytic leukemia), K-562 (human chronic myelogenous leukemia), B16-F10 (murine melanoma), MRC-5 (human lung fibroblast), WT SV40 MEF (wild-type immortalized mouse embryonic fibroblast) and BAD KO SV40 MEF (BAD gene knockout immortalized mouse embryonic fibroblast) cell lines were obtained from the American Type Culture Collection (ATCC, Manassas, VA, USA) and cultured in RPMI-1640 medium (Gibco-BRL, Gaithersburg, MD, USA) with 10% fetal bovine serum (Life, Carlsbad, CA, USA), 2 mM L-glutamine (Vetec Química Fina, Duque de Caxias, RJ, Brazil) and 50 μg/mL gentamycin (Life, Carlsbad, CA, USA). Adherent cells were collected by treatment with 0.25% trypsin EDTA solution (Gibco-BRL, Gaithersburg, MD, USA). All cell lines were cultured in flasks at 37°C in 5% CO2 and sub-cultured every 3-4 days to maintain exponential growth.
(§2) Cell viability was quantified using the alamar blue assay, according to Ahmed et al.. Cells were inserted in 96-well plates for all experiments (7 x 10^4 cells/mL for adherent cells or 3 x 10^5 cells/mL for suspended cells in 100 μL of medium). […] Negative controls received the vehicle that was used for diluting the compounds tested.

[2] = tested on: PBMC (human peripheral blood mononuclear cells); assay: Cytotoxic activity, alamar blue assay, PBMC non-cancer cells; conditions: Homo sapiens
Experimental: PBMCs were washed and resuspended at a concentration of 3 x 10^5 cells/mL in RPMI 1640 medium with 20% fetal bovine serum, 2 mM glutamine and 50 μg/mL gentamycin at 37°C with 5% CO2. […] The Research Ethics Committee of the Oswaldo Cruz Foundation (Salvador, Bahia, Brazil) approved the experimental protocol (# 031019/2013). All participants signed a written informed consent to participate in the study.
as §2

HCT116 cells = assay: Gene expression analysis by qPCR array (TaqMan Array Human Molecular Mechanisms of Cancer); conditions: HCT116, 12 h, DOX 1 μM, PL 10 μM, 1 2.5 μM, 2 5 μM, negative control RQ = 1.0
Experimental: HCT116 cells were plated in bottles tissue culture (7x10^4 cells/mL). After 12h of incubation with the complexes, total RNA was isolated from the cells using the RNeasy Plus mini kit (Qiagen, Hilden, Germany) according to the manufacturer’s instructions. The RNA was evaluated by fluorimetry (QuBit™, Life Technologies, Camarillo, CA, EUA). RNA reverse transcription was performed using Superscript VILO™ (Invitrogen Corporation, Waltham, MA, USA). A 96-well plate TaqMan® Array Human Molecular Mechanisms of Cancer (ID 4418806, Applied Biosystems™, Foster City, CA, EUA) was used for the gene expression study by qPCR. The reactions were conducted in the ABI ViiA7 (Applied Biosystems™, Foster City, CA, EUA). The cycle conditions comprised 2 min at 50 °C, 20 s at 95 °C, then 40 cycles of 3 s at 95 °C and 30 s at 60 °C. […] The GAPDH, 18S and HPRT1 genes were used for normalization. All experiments were performed in DNase/RNase free conditions.

[3] = tested on: HCT116 (human colon carcinoma); assay: Cytotoxic activity, alamar blue assay, HCT116
Text: as §1, §2

[4] = tested on: HL-60 (human promyelocytic leukemia); assay: Cytotoxic activity, alamar blue assay, HL-60
Text: as §1, §2

## COc1cccc2c1C(=O)c1c(O)c3c(c(O)c1C2=O)C[C@@](O)(C(=O)CO)C[C@@H]3O[C@H]1C[C@H](N)[C@H](O)[C@H](C)O1 [Doxorubicin]
[1]; MRC5, MRC-5 non-cancer cells, 72h of incubation, alamar blue, with 95% confidence interval, read-out: IC50
  IC50: 1.3 µM
[2]; PBMC non-cancer cells, 72h of incubation, alamar blue, with 95% confidence interval, read-out: IC50
  IC50: 5.4 µM
HCT116 cells
  RQ ABL1: 0.912
  RQ AKT1: 1.840
  RQ AKT2: 3.877
  RQ APC: 0.908
  RQ BAX: 3.274
  RQ BCAR1: 1.809
  RQ BCL2L1: 2.391
  RQ BCL2L11: 1.152
  RQ BID: 1.757
  RQ BRAF: 0.513
  RQ CASP9: 0.530
  RQ CCND3: 1.438
  RQ CCNE1: 0.894
  RQ CDC42: 1.271
  RQ CDK2: 1.257
  RQ CDK4: 0.983
  RQ CDKN1A: 2.853
  RQ CDKN1B: 0.766
  RQ CRK: 0.867
  RQ CTNNB1: 0.939
  RQ DVL1: 1.252
  RQ E2F1: 1.018
  RQ ELK1: 1.263
  RQ ERBB2: 2.605
  RQ FAS: 2.372
  RQ FGF2: 0.625
  RQ GRB2: 0.761
  RQ GSK3B: 1.342
  RQ GUSB: 5.0
  RQ HRAS: 0.691
  RQ ITGB1: 0.489
  RQ ITGB3: 5.579
  RQ KRAS: 0.951
  RQ MAPK1: 0.903
  RQ MAPK8: 1.185
  RQ MAPK14: 0.786
  RQ MDM2: 1.479
  RQ MYC: 0.876
  RQ NFKB1: 0.784
  RQ NFKB2: 1.250
  RQ NRAS: 0.556
  RQ PIK3CA: 0.409
  RQ RB1: 0.532
  RQ RELA: 0.862
  RQ RHOA: 0.900
  RQ SRC: 1.383
  RQ TCF3: 1.135
  RQ TGFB1: 0.495
  RQ TGFBR1: 1.216
  RQ VEGFA: 0.610
HCT116 cells; listed as DOX
  RQ BCL2: 3.1 and 3.090
  RQ CCND1: 1.1 and 1.124
  RQ CDH1: 7.1 and 7.107
  RQ CDKN2A: 1.8 and 1.793
  RQ CYCS: 1.0 and 0.993
  RQ EGFR: 0.8 and 0.831
  RQ FADD: 1.1 and 1.049
  RQ FN1: 3.6 and 3.575
  RQ FOS: 11.8 and 11.834
  RQ FYN: 1.3 and 1.248
  RQ FZD1: 1.0 and 0.994
  RQ IGF1R: 1.4 and 1.389
  RQ ITGA2B: 4.5 and 4.514
  RQ ITGAV: 1.3 and 1.265
  RQ JUN: 4.1 and 4.073
  RQ MAP2K1: 0.7 and 0.681
  RQ MAP3K5: 1.0 and 1.006
  RQ MAPK3: 2.8 and 2.758
  RQ NFKBIA: 2.3 and 2.326
  RQ PIK3R1: 2.0 and 1.999
  RQ PTEN: 1.8 and 1.750
  RQ PTK2: 1.2 and 1.182
  RQ PTK2B: 3.4 and 3.368
  RQ RAC1: 0.9 and 0.845
  RQ RAF1: 2.0 and 2.027
  RQ SHC1: 0.6 and 0.640
  RQ SMAD4: 1.0 and 0.963
  RQ SOS1: 0.7 and 0.741
  RQ SPP1: 1.2 and 1.165
  RQ TGFBR2: 0.9 and 0.914
  RQ TP53: 3.3 and 3.250

## COc1cc(/C=C/C(=O)N2CCC=CC2=O)cc(OC)c1OC [Piplartine]
[3]; SI = IC50[MRC-5]/IC50[HCT116]
  Selectivity index (SI): 2.7
[3]; SI = IC50[PBMC]/IC50[HCT116]
  Selectivity index (SI): 5.3
[4]; SI = IC50[MRC-5]/IC50[HL-60]
  Selectivity index (SI): 1.3
[4]; SI = IC50[PBMC]/IC50[HL-60]
  Selectivity index (SI): 2.6
[1]; MRC5, 72 h
  IC50: 17.3 µM
[2]; PBMC, 72 h
  IC50: 34.2 µM
HCT116 cells
  RQ ABL1: 1.144
  RQ AKT1: 1.285
  RQ AKT2: 1.068
  RQ APC: 1.236
  RQ BAX: 2.160
  RQ BCAR1: 0.705
  RQ BCL2L1: 0.822
  RQ BCL2L11: 1.536
  RQ BID: 0.528
  RQ BRAF: 1.512
  RQ CASP8: 0.915
  RQ CASP9: 1.065
  RQ CCND3: 1.144
  RQ CCNE1: 1.418
  RQ CDC42: 2.542
  RQ CDK2: 0.722
  RQ CDK4: 0.873
  RQ CDKN1A: 2.847
  RQ CDKN1B: 1.545
  RQ CRK: 0.381
  RQ CTNNB1: 1.026
  RQ DVL1: 0.913
  RQ E2F1: 0.764
  RQ ELK1: 0.625
  RQ ERBB2: 1.273
  RQ FAS: 1.371
  RQ FGF2: 0.854
  RQ GRB2: 1.219
  RQ GSK3B: 1.249
  RQ GUSB: 5.2
  RQ HRAS: 0.928
  RQ ITGB1: 0.784
  RQ KRAS: 0.133
  RQ MAPK1: 1.098
  RQ MAPK8: 0.887
  RQ MAPK14: 1.009
  RQ MDM2: 0.901
  RQ MYC: 0.271
  RQ NFKB1: 0.870
  RQ NFKB2: 0.818
  RQ NRAS: 0.600
  RQ PIK3CA: 0.910
  RQ RB1: 1.314
  RQ RELA: 1.240
  RQ RHOA: 0.979
  RQ SRC: 1.076
  RQ TCF3: 0.774
  RQ TGFB1: 0.947
  RQ TGFBR1: 0.545
  RQ VEGFA: 1.245
HCT116 cells; listed as PL
  RQ BCL2: 1.1 and 1.049
  RQ CCND1: 0.7 and 0.669
  RQ CDH1: 2.5 and 2.494
  RQ CDKN2A: 1.6 and 1.575
  RQ CYCS: 1.0 and 0.954
  RQ EGFR: 1.2 and 1.173
  RQ FADD: 0.4 and 0.369
  RQ FN1: 2.0 and 1.952
  RQ FOS: 31.0 and 30.985
  RQ FYN: 1.7 and 1.675
  RQ FZD1: 1.0 and 0.953
  RQ IGF1R: 2.1 and 2.082
  RQ ITGA2B: 3.0 and 2.963
  RQ ITGAV: 1.0 and 0.993
  RQ JUN: 3.8 and 3.837
  RQ KDR: 8.3 and 8.270
  RQ MAP2K1: 0.8 and 0.759
  RQ MAP3K5: 0.6 and 0.609
  RQ MAPK3: 1.7 and 1.726
  RQ MAX: 3.1 and 3.051
  RQ NFKBIA: 2.0 and 1.989
  RQ PIK3R1: 2.4 and 2.352
  RQ PTEN: 0.5 and 0.501
  RQ PTK2: 0.6 and 0.616
  RQ PTK2B: 2.3 and 2.265
  RQ RAC1: 0.7 and 0.731
  RQ RAF1: 0.6 and 0.574
  RQ SHC1: 0.2 and 0.243
  RQ SMAD4: 0.9 and 0.942
  RQ SOS1: 0.9 and 0.851
  RQ SPP1: 1.3 and 1.338
  RQ TGFBR2: 1.2 and 1.177
  RQ TP53: 1.2 and 1.182
